In patent US20190255078A1, “TOPICAL COMPOSITIONS WITH STABLE SOLUBILIZED SELECTIVE RETINOIDS AND/OR TETRACYCLINE-CLASS ANTIBIOTICS” (BioPharmX, Inc., priority 2018, published 2019):
Values belong to the compound of their own block, whether it stands above or below them.

How the values were obtained:
[1] = test system: antibiotic-resistant P. acnes; conditions: clinical isolates of antibiotic-resistant P. acnes; cited from earlier work
[2] = Solubility of tazarotene in solvents and solvent mixtures (Example 2); type: physicochemical
Source text: Tazarotene is known to have low solubility in many traditional solvent systems. […] However, compositions with ethanol as the only solvent are typically irritating to the skin, have a pungent smell, and leave the skin feeling dry. […] It has been discovered that that mixtures of ethanol and carboxylate esters have higher solubility of tazarotene than would be expected from mixtures of the components individually.
Tazarotene is desirably used in compositions at a concentration of 0.01% to 0.20% (w/w). […].
As shown in Table 5 and FIG. 2, the tazarotene solubility in selected binary and tertiary mixtures was even higher than the solubility of tazarotene in ethanol alone. […] Even small amounts of carboxylate esters can have unexpectedly large effects.
Thus, the tazarotene in selected ranges of binary mixtures was higher than the solubility of tazarotene in the individual components of the solvent mixture.

[3] = Stability of tazarotene in solution with antioxidants and/or magnesium chloride (Example 3A); type: physicochemical
Protocol: Retinoids can undergo chemical degradation in solutions due to oxidation. However, many antioxidants are not effective in sufficiently stabilizing retinoids in a pharmaceutical composition. A study was performed in which samples consisting of 0.05% (w/w) tazarotene dissolved in 79.15% (w/w) ethanol (anhydrous), 0.6% hydroxypropyl cellulose HF (KLUCEL HF), 20% propylene glycol, and 0.20% (w/w) of an antioxidant were stored in a sealed amber glass container for 8 weeks at 40° C. For the tested composition with no antioxidant, the additional 0.20% was made up with ethanol (anhydrous).
Only one of the antioxidants improved the stability of tazarotene: propyl gallete, reducing the degradation from 5% to 1% over the 8-week period. In contrast, the antioxidant ascorbic acid increased the degradation from 5% to approximately 50% over the 8-week period.
Similarly, divalent cations such as magnesium, are also ineffective in stabilizing tazarotene. A mixture comprising ethanol, 0.6% magnesium chloride, and 0.05% tazarotene was stored in a sealed amber glass container for 13 weeks at 40° C.
A mixture comprising ethanol, 0.6% magnesium chloride, 0.2% sodium metabisulfite, and 0.05% tazarotene was stored in a sealed amber glass container for 13 weeks at 40° C. The tazarotene degraded by 3% over the 13-week period in comparison to 5% degradation for a mixture comprising ethanol and 0.05% tazarotene (and without magnesium chloride or an antioxidant) over the same period. […] Measurements for an additional composition comprising ethanol, 0.20% sodium metabisulfite, and 0.05% tazarotene (without the presence of magnesium chloride) were taken at 0, 1, 2, 4, and 8 weeks. Only the data at 0 and 8 weeks are presented in FIG. 3A for this composition. Data for this composition was not captured at 13 weeks.

[4] = Room temperature stability of tazarotene and minocycline in single and combination compositions (Example 5); type: physicochemical; conditions: 18 months
[5] = Stability of tazarotene in solution with antioxidants and/or magnesium chloride (Example 3A); type: physicochemical; conditions: ethanol (anhydrous), sodium metabisulfite, sealed amber glass
[6] = cited from earlier work
[7] = Stability at 40° C. of single and dual API compositions of Table 13-1 (Example 10); conditions: 6 months
Protocol: The exemplary compositions comprised tazarotene, minocycline, or a combination thereof. Each composition was stored at room temperature for 2 and 5 weeks in a sealed amber glass container at 40° C.

Structure (SMILES): CC[C@H]1OC(=O)[C@H](C)[C@@H](O[C@H]2C[C@@](C)(OC)[C@@H](O)[C@H](C)O2)[C@H](C)[C@@H](O[C@@H]2O[C@H](C)C[C@H](N(C)C)[C@H]2O)[C@](C)(O)C[C@@H](C)C(=O)[C@H](C)[C@@H](O)[C@]1(C)O [erythromycin]
average MIC90 [1]: ~512 µg/mL

tazarotene solubility relative to solubility in ester alone ([2]; ethanol and at least one carboxylate ester, binary and tertiary mixtures): 2-5 times
TAZAROTENE SOLUBILITY ([2]; ethanol and diisopropyl adipate 1:1 (W/W)): 39.0 mg/g
TAZAROTENE SOLUBILITY ([2]; ethanol and diisopropyl adipate 9:1 (W/W)): 23.3 mg/g
TAZAROTENE SOLUBILITY ([2]; ethanol and dimethyl succinate 20:80 (W/w)): 109.42 mg/g
TAZAROTENE SOLUBILITY ([2]; ethanol and dimethyl succinate 40:60 (W/w)): 103.65 mg/g
TAZAROTENE SOLUBILITY ([2]; ethanol and dimethyl succinate 60:40 (W/w)): 67.18 mg/g
TAZAROTENE SOLUBILITY ([2]; ethanol and dimethyl succinate 80:20 (W/w)): 45.30 mg/g
TAZAROTENE SOLUBILITY ([2]; ethanol and isopropyl myristate 1:1 (W/W)): 37.8 mg/g
TAZAROTENE SOLUBILITY ([2]; ethanol and isopropyl myristate 9:1 (W/W)): 34.8 mg/g
TAZAROTENE SOLUBILITY ([2]; ethanol and medium chain triglyceride 1:1 (W/W)): 38.6 mg/g
TAZAROTENE SOLUBILITY ([2]; ethanol and medium chain triglyceride 9:1 (W/W)): 23.5 mg/g
TAZAROTENE SOLUBILITY ([2]; ethanol and propyl acetate 20:80 (W/w)): 179.99 mg/g
TAZAROTENE SOLUBILITY ([2]; ethanol and propyl acetate 40:60 (W/w)): 139.85 mg/g
TAZAROTENE SOLUBILITY ([2]; ethanol and propyl acetate 60:40 (W/w)): 80.16 mg/g
TAZAROTENE SOLUBILITY ([2]; ethanol and propyl acetate 80:20 (W/w)): 44.12 mg/g
TAZAROTENE SOLUBILITY ([2]; ethanol and propylene glycol 1:1 (W/W)): 10.3 mg/g
TAZAROTENE SOLUBILITY ([2]; ethanol and propylene glycol 4:1 (W/W)): 22.3 mg/g
TAZAROTENE SOLUBILITY ([2]; ethanol, glycerol, and isopropyl myristate 7:2:1 (W/W)): 30.3 mg/g
TAZAROTENE SOLUBILITY ([2]; ethanol, propylene glycol, and diisopropyl adipate 7:2:1 (W/W)): 24.9 mg/g
TAZAROTENE SOLUBILITY ([2]; ethanol, propylene glycol, and dimethyl succinate 7:2:1 (W/W)): 30.1 mg/g
TAZAROTENE SOLUBILITY ([2]; ethanol, propylene glycol, and isopropyl myristate 7:2:1 (W/W)): 32.3 mg/g
TAZAROTENE SOLUBILITY ([2]; ethanol, propylene glycol, and medium chain triglycerides 7:2:1 (W/W)): 24.4 mg/g
TAZAROTENE SOLUBILITY ([2]; ethanol, propylene glycol, and propyl acetate 7:2:1 (W/W)): 29.1 mg/g
TAZAROTENE SOLUBILITY ([2]; in diisopropyl adipate): 1.21 mg/g
TAZAROTENE SOLUBILITY ([2]; in dimethyl succinate): 63.18 mg/g
TAZAROTENE SOLUBILITY ([2]; in isopropyl myristate): 0.75 mg/g
TAZAROTENE SOLUBILITY ([2]; in medium chain triglycerides): 0.16 mg/g
TAZAROTENE SOLUBILITY ([2]; in propyl acetate): 138.04 mg/g
TAZAROTENE SOLUBILITY ([2]; in propylene glycol): 0.0054 mg/g
TAZAROTENE SOLUBILITY ([2]; propylene glycol and diisopropyl adipate 2:0 (W/W)): 5.6 mg/g
TAZAROTENE SOLUBILITY ([2]; propylene glycol and dimethyl succinate 2:1 (W/W)): 1.27 mg/g
TAZAROTENE SOLUBILITY ([2]; propylene glycol and isopropyl myristate 2:1 (W/W)): 6.0 mg/g
TAZAROTENE SOLUBILITY ([2]; propylene glycol and propyl acetate 2:1 (W/W)): 1.55 mg/g
solubility for tazarotene in combined solvent systems ([2]; selected ratios of carboxylate esters to monohydric aliphatic alcohol): at least 25 mg/g
Reduction in Tazarotene concentration after 8 weeks at 40° C. (% degradation relative to baseline tazarotene) ([3]; 0.05% tazarotene in ethanol/20% propylene glycol/0.6% HPC, antioxidant: none): 5%
Reduction in Tazarotene concentration after 8 weeks at 40° C. (% degradation relative to baseline tazarotene) ([3]; antioxidant: 0.20% BHT): 5%
Reduction in Tazarotene concentration after 8 weeks at 40° C. (% degradation relative to baseline tazarotene) ([3]; antioxidant: 0.20% Dl-Alpha Tocopherol): 5%
Reduction in Tazarotene concentration after 8 weeks at 40° C. (% degradation relative to baseline tazarotene) ([3]; antioxidant: 0.20% propyl gallete): 1%
Reduction in Tazarotene concentration after 8 weeks at 40° C. (% degradation relative to baseline tazarotene) ([3]; antioxidant: 0.20% sodium metabisulfite (SMBS)): 8%
Reduction in Tazarotene concentration after 8 weeks at 40° C. (% degradation relative to baseline tazarotene) ([3]; antioxidant: 0.20% sodium nitrate): 10%
Reduction in Tazarotene concentration after 8 weeks at 40° C. (% degradation relative to baseline tazarotene) ([3]; antioxidant: 0.20% sodium sulfite): 10%
Reduction in Tazarotene concentration after 8 weeks at 40° C. (% degradation relative to baseline tazarotene) ([3]; antioxidant: 0.20% tocopherol): 5%
tazarotene degradation over 13 weeks at 40° C. ([3]; ethanol and 0.05% tazarotene, without magnesium chloride or antioxidant): 5%
tazarotene degradation over 13 weeks at 40° C. ([3]; ethanol, 0.6% magnesium chloride, 0.05% tazarotene, sealed amber glass): 13%
tazarotene degradation over 13 weeks at 40° C. ([3]; ethanol, 0.6% magnesium chloride, 0.2% sodium metabisulfite, 0.05% tazarotene): 3%
stability when added in combination versus each drug alone ([4]; compositions of Table 9): more stable
stability in compositions of Table 9 ([4]; sealed amber glass): stable after 18 months
tazarotene degradation when stored for 12 months at room temperature [5]: less than 7%
stability when added in combination versus alone ([7]; compositions of Table 13-1): more stable
stability in single API and dual API compositions ([7]; compositions of Table 13-1 (FIGS. 8A-8B)): stable
Structure (SMILES): CCOC(=O)c1ccc(C#Cc2ccc3c(c2)C(C)(C)CCS3)nc1 [tazarotene, ethyl 6-[2-(4,4-dimethyl-2,3-dihydrothiochromen-6-yl)ethynyl]pyridine-3-carboxylate]
log P [6]: ~4.3

Structure (SMILES): COc1ccc(-c2ccc3cc(C(=O)O)ccc3c2)cc1C12CC3CC(CC(C3)C1)C2 [Adapalene, 6-[3-(1-adamantyl)-4-methoxy-phenyl]naphthalene-2-carboxylic acid]
log P [6]: approximately 6

Structure (SMILES): C[C@H]1c2cccc(O)c2C(=O)C2=C(O)[C@]3(O)C(=O)C(C(N)=O)=C(O)[C@@H](N(C)C)[C@@H]3[C@@H](O)[C@@H]21 [doxycycline, (4S,4aR,5S,5aR,6R,12aS)-4-(dimethylamino)-3,5,10,12,12a-pentahydroxy-6-methyl-1,11-dioxo-1,4,4a,5,5a,6,11,12a-octahydrotetracene-2-carboxamide]
average MIC90 [1]: 8 µg/mL
Log P ([6]; free base form): about −0.02
